In PubChem BioAssay (NCI):
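Exposure lasted 48 hours, with cells grown in 96-well plates and compounds tested at five concentrations. TGI: total growth inhibition.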

Assays:
Assay in all cases: growth of human tumour cells (NCI), 48 h
[1] = test system: HOP-92 NSCLC
[2] = test system: SNB-75 CNS
[3] = test system: SN12C renal
[4] = test system: SK-MEL-28 melanoma
[5] = test system: SR leukemia
[6] = test system: OVCAR-4 ovarian
[7] = test system: MCF7 breast
[8] = test system: CAKI-1 renal
[9] = test system: T-47D breast
[10] = test system: DU-145 prostate
[11] = test system: SK-OV-3 ovarian
[12] = test system: KM12 colon
[13] = test system: NCI-H522 lung
[14] = test system: NCI/ADR-RES ovarian
[15] = test system: TK-10 renal
[16] = test system: NCI-H23 lung
[17] = test system: MALME-3M melanoma
[18] = test system: EKVX NSCLC
[19] = test system: SK-MEL-2 melanoma
[20] = test system: PC-3 prostate
[21] = test system: SW-620 colon
[22] = test system: U251 CNS
[23] = test system: SF-295 CNS
[24] = test system: ACHN renal
[25] = test system: UO-31 renal
[26] = test system: M14 melanoma
[27] = test system: BT-549 breast
[28] = test system: HOP-62 NSCLC
[29] = test system: COLO 205 colon
[30] = test system: MDA-N
[31] = test system: HCT-15 colon
[32] = test system: A498 renal
[33] = test system: MDA-MB-435
[34] = test system: SF-268 CNS
[35] = test system: UACC-62 melanoma
[36] = test system: HCC-2998 colon
[37] = test system: A549 NSCLC
[38] = test system: RPMI-8226 leukemia
[39] = test system: MOLT-4 leukemia
[40] = test system: MDA-MB-231 breast
[41] = test system: LOX IMVI melanoma
[42] = test system: OVCAR-5 ovarian
[43] = test system: NCI-H226 lung
[44] = test system: HL-60(TB) leukemia
[45] = test system: HT29 colon
[46] = test system: SF-539 CNS
[47] = test system: OVCAR-8 ovarian
[48] = test system: RXF 393 renal
[49] = test system: OVCAR-3 ovarian
[50] = test system: HCT-116 colon
[51] = test system: NCI-H460 lung
[52] = test system: CCRF-CEM leukemia
[53] = test system: K-562 leukemia
[54] = test system: 786-0 renal
[55] = test system: SK-MEL-5 melanoma
[56] = test system: SNB-19 CNS
[57] = test system: IGROV1 ovarian
[58] = test system: UACC-257 melanoma
[59] = test system: HS 578T breast

COc1cc2cc(C(=O)N3CC(CCl)c4c3cc(NCCN)c3ccccc43)[nH]c2c(OC)c1OC (configuration not stated)
TGI [1]: < 0.01 µM | TGI [2]: 47.9 nM | TGI [3]: < 0.017 µM | TGI [4]: 0.564 µM | TGI [5]: > 100 µM | TGI [6]: 0.054 µM | TGI [7]: < 0.01 µM | TGI [8]: < 0.01 µM | TGI [9]: 1.07 µM | TGI [10]: 1.07 µM | TGI [11]: 1420 nM | TGI [12]: < 0.01 µM | TGI [13]: < 0.01 µM | TGI [14]: 0.0799 µM | TGI [15]: < 0.0181 µM | TGI [16]: < 0.01 µM | TGI [17]: < 0.0134 µM | TGI [18]: 0.0789 µM | TGI [19]: < 0.01 µM | TGI [20]: < 0.0328 µM | TGI [21]: 0.311 µM | TGI [22]: < 0.01 µM | TGI [23]: < 0.0468 µM | TGI [24]: < 0.01 µM | TGI [25]: < 0.0132 µM | TGI [26]: < 0.0121 µM | TGI [27]: 0.0817 µM | TGI [28]: < 0.0221 µM | TGI [29]: < 0.01 µM | TGI [30]: < 0.0203 µM | TGI [31]: 0.0536 µM | TGI [32]: < 0.0136 µM | TGI [33]: < 0.01 µM | TGI [34]: 0.484 µM | TGI [35]: < 0.01 µM

N=C(N)SCc1cc(Cl)cc(Cl)c1O
TGI [36]: 31.9 µM | TGI [37]: 53.9 µM | TGI [1]: 35.1 µM | TGI [38]: 47.5 µM | TGI [3]: 36.6 µM | TGI [4]: 46.4 µM | TGI [39]: 50.8 µM | TGI [40]: 30.5 µM | TGI [6]: 51.6 µM | TGI [41]: 36.2 µM | TGI [42]: 40.3 µM | TGI [43]: 43.1 µM | TGI [7]: 60.1 µM | TGI [44]: 21.1 µM | TGI [8]: 33.3 µM | TGI [45]: 32.1 µM | TGI [9]: 51.8 µM | TGI [10]: 36.2 µM | TGI [46]: 22.1 µM | TGI [11]: > 100000 nM | TGI [47]: 38.3 µM | TGI [12]: 33.7 µM | TGI [13]: 33.4 µM | TGI [14]: 89.3 µM | TGI [15]: 35.4 µM | TGI [48]: 46.8 µM | TGI [16]: 40.4 µM | TGI [49]: 31.4 µM | TGI [50]: 29.8 µM | TGI [17]: 72.7 µM | TGI [18]: 42.8 µM | TGI [19]: 39.6 µM | TGI [51]: 36.2 µM | TGI [20]: 43.9 µM | TGI [21]: 49.4 µM | TGI [52]: 35.6 µM | TGI [22]: 30 µM | TGI [23]: 55.7 µM | TGI [53]: 41.5 µM | TGI [24]: 36.4 µM | TGI [54]: 32.2 µM | TGI [55]: 31.9 µM | TGI [25]: 32.4 µM | TGI [56]: 56.8 µM | TGI [26]: 42.1 µM | TGI [27]: 36.6 µM | TGI [28]: 38 µM | TGI [57]: 38.2 µM | TGI [29]: 33 µM | TGI [30]: 33.1 µM | TGI [58]: 31.6 µM | TGI [31]: 46.8 µM | TGI [32]: 51.7 µM | TGI [33]: 38 µM | TGI [59]: 72 µM | TGI [34]: 58.3 µM | TGI [35]: 34 µM
